Patent EP4807001A1, “MODIFICATION TEMPLATE FOR IMPROVING INHIBITORY EFFECT OF DOUBLE-STRANDED OLIGONUCLEOTIDE ON TARGET GENE, COMBINATION THEREOF AND USE THEREOF” (Hangzhou Tianlong Pharmaceutical Co., Ltd., priority 2023, dated 2025)

Key:
AGT mRNA = assay: Inhibition of AGT mRNA expression in primary human hepatocytes via free uptake, qRT-PCR (Example 24); type: cell-based; conditions: 0.0064 nM to 100 nM, read-out: IC50 against AGT
Method: The inhibitory effects of the test samples on AGT mRNA expression in primary human hepatocytes were evaluated by qRT-PCR.
The culture medium was pre-warmed at a constant temperature of 37°C for at least 30 minutes. 300 µL of PBS was added to each well of a collagen-coated 24-well plate, which was shaken several times, and the PBS was aspirated. A cryovial containing hepatocytes was removed from liquid nitrogen, placed in a 37°C water bath, and gently shaken until only a small amount of ice crystals remained in the vial. The cell suspension was poured into thawing medium in one step. 1 mL of thawing medium was pipetted to rinse the inner wall of the cryovial 2 to 3 times. The cell suspension in thawing medium was mixed by inversion. The vial was centrifuged at 50 g for 5 minutes at room temperature, with acceleration set to 5 and deceleration set to 3. The cell suspension was diluted to 3 × 10^5 cells/mL in seeding medium, seeded into a 24-well plate at 0.5 mL per well, followed by incubation in an incubator for 24 hours.
The test samples were diluted to 100 to 0.0064 nM in primary human hepatocyte maintenance medium. […]
The RNA expression levels of the target gene in each sample were calculated based on Ct values using the ΔΔCt relative quantification method. Relative expression of the target gene was expressed as 2^-ΔΔCt. […]

HBV = assay: AAV-HBV mouse model, low dose 0.5 mg/kg (Example 15); type: in vivo, AAV-HBV mice; conditions: for Log10 HBV DNA (IU/mL) / Log10 HBeAg (S/CO) / Log10 HBsAg (IU/mL) / HBsAb: plasma; for Log10 HBV DNA (IU/mL) / Log10 HBeAg (S/CO) / Log10 HBsAg (IU/mL): AAV-HBV mice, siRNA 0.5 mg/kg s.c. D0/7/14, ETV 0.1 mg/kg daily i.g.
Method: In this example, several sequences were exemplarily selected, such as the sequences C207S-DV32SPG5, C207S-DV29SPG5, C418S-DV34SPd7BG5, and C1575-DV27PG5 from Example 14, as shown in Table 49. The in vivo efficacy of these RNAi agents at a low dose (e.g., 0.5 mg/kg) was analyzed using an AAV-HBV mouse model.
Refer to Example 7. Table 51-10: Details of grouping and dosing

[1] = Plasma ALT levels in AAV-HBV mice (Examples 14-16); type: in vivo
Method: At week 4 (D-14) and week 5 (D-7) post-modeling, on the day prior to dosing (D0), and weekly post-dosing, 200 µL of blood was collected from the inner canthus and added to an EDTA-K2 tube, followed by centrifugation at 1000 g for 10 minutes to obtain plasma. The 12 mice in the two groups were subjected to challenge on D60. 200 µL of blood was collected from the inner canthus on D63, D67, D74, and D81, respectively, and added to an EDTA-K2 tube, followed by centrifugation at 1000 g for 10 minutes to obtain plasma. 20 µL of plasma was added to 980 µL of PBS, vortexed thoroughly, and analyzed for HBsAg, HBV DNA, HBeAg, and ALT levels. Separately, 15 µL of plasma was added to 210 µL of PBS, vortexed thoroughly, and analyzed for HBsAb levels. All processed samples to be tested were analyzed by Guangzhou Huayin Medical Research Institute. The remaining plasma was stored at - 80°C.
Blood was collected from all animals via submandibular venipuncture on Days -2, 6, 13, 20, 27, and 34. The collected blood samples were anticoagulated with EDTA and centrifuged at 5000 rpm for 10 minutes to obtain serum. After blood collection, the serum was separated, diluted with PBS, and sent for analysis. A 10 µL aliquot of serum was taken from each sample, diluted to 500 µL with PBS (50-fold dilution), and sent to Beijing DIAN Medical Laboratory Co., Ltd. for analysis of serum HBV DNA, HBeAg, and HBsAg. A 30 µL aliquot of serum was taken from each sample, diluted to 120 µL with PBS (4-fold dilution), and sent to Beijing DIAN Medical Laboratory Co., Ltd. for analysis of serum ALT. The remaining plasma was stored at -80°C.

Zilebesiran
IC50 (AGT mRNA): 7.07 nM

C=C1[C@H](CO)[C@@H](O)C[C@@H]1n1cnc2c(=O)[nH]c(N)nc21 [entecavir]
Number of mice producing HBsAb (HBV; D7, low dose 0.5 mg/kg): 0
Number of mice producing HBsAb (HBV; D14, low dose 0.5 mg/kg): 0
Number of mice producing HBsAb (HBV; D21, low dose 0.5 mg/kg): 0
Number of mice producing HBsAb (HBV; D28, low dose 0.5 mg/kg): 0
Number of mice producing HBsAb (HBV; D35, low dose 0.5 mg/kg): 0
Number of mice producing HBsAb (HBV; D42, low dose 0.5 mg/kg): 0
Number of mice producing HBsAb (HBV; D49, low dose 0.5 mg/kg): 0
Number of mice producing HBsAb (HBV; D56, low dose 0.5 mg/kg): 0
Log10 HBV DNA (IU/mL) (HBV; D0): 6.91 ± 0.58 IU/mL
Log10 HBeAg (S/CO) (HBV; D0): 3.73 ± 0.06 S/CO
Log10 HBsAg (IU/mL) (HBV; D0): 3.47 ± 0.34 IU/mL
Log10 HBV DNA (IU/mL) (HBV; D7): 4.49 ± 0.54 IU/mL
Log10 HBeAg (S/CO) (HBV; D7): 3.72 ± 0.05 S/CO
Log10 HBsAg (IU/mL) (HBV; D7): 3.50 ± 0.33 IU/mL
Log10 HBV DNA (IU/mL) (HBV; D14): 3.85 ± 0.24 IU/mL
Log10 HBeAg (S/CO) (HBV; D14): 3.72 ± 0.03 S/CO
Log10 HBsAg (IU/mL) (HBV; D14): 3.54 ± 0.25 IU/mL
Log10 HBV DNA (IU/mL) (HBV; D21): 3.89 ± 0.31 IU/mL
Log10 HBeAg (S/CO) (HBV; D21): 3.66 ± 0.05 S/CO
Log10 HBsAg (IU/mL) (HBV; D21): 3.74 ± 0.14 IU/mL
Log10 HBV DNA (IU/mL) (HBV; D28): 3.77 ± 0.37 IU/mL
Log10 HBeAg (S/CO) (HBV; D28): 3.71 ± 0.06 S/CO
Log10 HBsAg (IU/mL) (HBV; D28): 3.94 ± 0.27 IU/mL
Log10 HBV DNA (IU/mL) (HBV; D35): 3.74 ± 0.25 IU/mL
Log10 HBeAg (S/CO) (HBV; D35): 3.66 ± 0.05 S/CO
Log10 HBsAg (IU/mL) (HBV; D35): 3.96 ± 0.39 IU/mL
Log10 HBV DNA (IU/mL) (HBV; D42): 3.63 ± 0.08 IU/mL
Log10 HBeAg (S/CO) (HBV; D42): 3.68 ± 0.05 S/CO
Log10 HBsAg (IU/mL) (HBV; D42): 4.04 ± 0.40 IU/mL
Log10 HBV DNA (IU/mL) (HBV; D49): 3.97 ± 0.13 IU/mL
Log10 HBeAg (S/CO) (HBV; D49): 3.69 ± 0.08 S/CO
Log10 HBsAg (IU/mL) (HBV; D49): 4.22 ± 0.33 IU/mL
Log10 HBV DNA (IU/mL) (HBV; D56): 4.04 ± 0.32 IU/mL
Log10 HBeAg (S/CO) (HBV; D56): 3.70 ± 0.04 S/CO
Log10 HBsAg (IU/mL) (HBV; D56): 4.20 ± 0.30 IU/mL
Log10 HBV DNA (IU/mL) (HBV; D-7 (before dosing)): 6.65 ± 0.58 IU/mL
Log10 HBeAg (S/CO) (HBV; D-7 (before dosing)): 3.77 ± 0.06 S/CO
Log10 HBsAg (IU/mL) (HBV; D-7 (before dosing)): 3.36 ± 0.26 IU/mL
HBsAb (HBV; D7, low dose 0.5 mg/kg): 30 mIU/mL
HBsAb (HBV; D14, low dose 0.5 mg/kg): 30 mIU/mL
HBsAb (HBV; D21, low dose 0.5 mg/kg): 30 mIU/mL
HBsAb (HBV; D28, low dose 0.5 mg/kg): 30 mIU/mL
HBsAb (HBV; D35, low dose 0.5 mg/kg): 30 mIU/mL
HBsAb (HBV; D42, low dose 0.5 mg/kg): 30 mIU/mL
HBsAb (HBV; D49, low dose 0.5 mg/kg): 30 mIU/mL
HBsAb (HBV; D56, low dose 0.5 mg/kg): 30 mIU/mL
ALT ([1]; D7, Example 15 (low dose 0.5 mg/kg)): 75 U/L
ALT ([1]; D14, Example 15 (low dose 0.5 mg/kg)): 75 U/L
ALT ([1]; D21, Example 15 (low dose 0.5 mg/kg)): 75 U/L
ALT ([1]; D28, Example 15 (low dose 0.5 mg/kg)): 75 U/L
ALT ([1]; D35, Example 15 (low dose 0.5 mg/kg)): 75 U/L
ALT ([1]; D42, Example 15 (low dose 0.5 mg/kg)): 75 U/L
